# Test results taken from the supplement of paper PMC13380429.
# Experiments:
# Conditions in all cases: 72 h
# HepG2 [1] = assay: drug sensitivity score (DSS) for viability; higher = more toxic; extreme values may be limits of the assay
# Vero E6 [2] = assay: as above
# U2OS [3] = assay: as above
# Calu-3 [4] = assay: as above
# Caco-2 [5] = assay: as above
# HepG2 [6] = assay: cell viability relative to DMSO; higher = less toxic
# Caco-2 [7] = assay: as above
# Vero E6 [8] = assay: as above
# U2OS [9] = assay: as above
# Calu-3 [10] = assay: as above
# Vero E6 [11] = assay: relative viability EC50 (midpoint between 100% and the lowest measured viability); higher = less toxic
# HepG2 [12] = assay: as above
# Caco-2 [13] = assay: as above
# U2OS [14] = assay: as above
# Calu-3 [15] = assay: as above
SMILES,drug sensitivity score (HepG2 [1]),drug sensitivity score (Vero E6 [2]),drug sensitivity score (U2OS [3]),drug sensitivity score (Calu-3 [4]),drug sensitivity score (Caco-2 [5]),cell viability (HepG2 [6]; 1 nM) [%],cell viability (HepG2 [6]; 10 nM) [%],cell viability (HepG2 [6]; 100 nM) [%],cell viability (HepG2 [6]; 1000 nM) [%],cell viability (HepG2 [6]; 10000 nM) [%],cell viability (Caco-2 [7]; 1 nM) [%],cell viability (Caco-2 [7]; 10 nM) [%],cell viability (Caco-2 [7]; 100 nM) [%],cell viability (Caco-2 [7]; 1000 nM) [%],cell viability (Caco-2 [7]; 10000 nM) [%],cell viability (Vero E6 [8]; 1 nM) [%],cell viability (Vero E6 [8]; 10 nM) [%],cell viability (Vero E6 [8]; 100 nM) [%],cell viability (Vero E6 [8]; 1000 nM) [%],cell viability (Vero E6 [8]; 10000 nM) [%],cell viability (U2OS [9]; 1 nM) [%],cell viability (U2OS [9]; 10 nM) [%],cell viability (U2OS [9]; 100 nM) [%],cell viability (U2OS [9]; 1000 nM) [%],cell viability (U2OS [9]; 10000 nM) [%],cell viability (Calu-3 [10]; 1 nM) [%],cell viability (Calu-3 [10]; 10 nM) [%],cell viability (Calu-3 [10]; 100 nM) [%],cell viability (Calu-3 [10]; 1000 nM) [%],cell viability (Calu-3 [10]; 10000 nM) [%],relative viability EC50 (Vero E6 [11]) [nM],relative viability EC50 (HepG2 [12]) [nM],relative viability EC50 (Caco-2 [13]) [nM],relative viability EC50 (U2OS [14]) [nM],relative viability EC50 (Calu-3 [15]) [nM]
CO[C@@]12[C@H](COC(N)=O)C3=C(C(=O)C(C)=C(N)C3=O)N1C[C@@H]1N[C@@H]12 [mitomycin-C],16.7,5.5,2.6,2.6,,,,,,,,,,,,,,,,,,,,,,,,,,,,,,,
Cc1cc(-c2ccc(/N=N/c3ccc4c(S(=O)(=O)O)cc(S(=O)(=O)O)c(N)c4c3O)c(C)c2)ccc1/N=N/c1ccc2c(S(=O)(=O)O)cc(S(=O)(=O)O)c(N)c2c1O [evans-blue],4.9,4.2,4.2,1,2.8,102,89.6,84.2,86.5,52.6,96.7,88.9,104,97.9,51.1,103,106,94,91.6,47.9,99,98.6,95.1,86.3,53.7,92.8,101,105,102,71.9,1920,,,,
COc1cc(OC2CCN(C)CC2)ccc1Nc1ncc2c(n1)n(C1CCCC1)c(=O)n2C [AZ3146],4.5,3.2,3.5,3.8,1.5,106,97.9,102,96.1,28.8,103,101,104,95,76.8,111,104,103,99.4,41.8,100,104,101,92.2,57,95.5,87.4,93.6,84.4,62.4,3100,2740,> 10000,,
COc1ccc(C(=O)CC2(O)C(=O)Nc3c(Cl)ccc(Cl)c32)cc1 (stereo unspecified) [YK-4-279],4.4,2.6,3.6,0.6,2.8,106,108,99.1,94.5,34.9,105,93.1,103,93.3,63.8,108,102,102,102,48.1,104,97.8,106,95.6,45.7,103,93.2,101,106,76.4,3340,2470,,2500,> 10000
O=C(O)c1cc(-c2ccccc2)nc2ccccc12 [cinchophen],0.2,0,0,0,,,,,,,,,,,,,,,,,,,,,,,,,,,,,,,
O=C1[C@H](Cc2ccc(O)cc2)N2C(=O)CCN(C(=O)NCc3ccccc3)[C@H]2CN1Cc1cccc2ccccc12 [ICG-001],2.7,0,,2.4,2.7,102,105,110,105,43.5,91.5,94.2,99.7,91,68.8,90,99.2,91.3,97.2,106,,,,,,97.4,106,97.1,100,53.1,> 10000,3600,,,
CCOC(=O)Nc1cc(-c2ccc(C)c(NS(C)(=O)=O)c2)nn2c(C)nnc12 [bromosporine],9.4,10.4,7.6,7.9,4.8,101,98.9,102,60.8,19.5,95.5,101,104,81.3,55.8,95.7,101,94.7,55.5,6.3,96.2,99.2,91.5,79.2,18.5,96.8,88,80.4,76.3,37.8,1050,1020,,1570,624
CC(=O)NC[C@H]1CN(c2ccc(N3CCOCC3)c(F)c2)C(=O)O1 [linezolid],0,0,0,,,,,,,,,,,,,,,,,,,,,,,,,,,,,,,,
CC(C)(C)Nc1nc(Nc2ccc(C(N)=O)cc2)cc(N)c1C#N [TC-Mps1-12],8,2.1,2.6,0,1.8,91.7,89.8,88.4,66.2,39.5,94.9,101,102,95.9,72.1,104,102,101,98.2,61.7,93.6,96.6,94.8,95,62.9,97.5,103,104,109,100,,555,,,> 10000
O=C(NC[C@H](O)CO)c1ccncc1Nc1ccc(I)cc1F,27.2,13.5,5.2,14.8,6.9,102,62.9,35,20.5,15.8,92.8,93.2,81.7,73,61.7,98.2,85.4,67.4,52,52.7,94.6,94.5,91.6,91.8,29.9,96.8,83.1,67.3,51,31.9,,17.8,,2200,104
CN1CCN(C(c2ccccc2)c2ccc(Cl)cc2)CC1 (stereo unspecified) [chlorcyclizine],0,0,0,0.1,0.9,97.6,90.4,95.8,91.7,87.9,107,104,79.4,105,71.7,105,97.3,103,101,92.6,93.8,103,99,106,88.8,102,103,96.4,98.3,88.1,> 10000,> 10000,,> 10000,> 10000
O=C(O)[C@]1(Cc2cccc(Nc3nccs3)n2)CC[C@@H](Oc2cccc(Cl)c2F)CC1 [MK-5108],7.8,1.3,1.8,2.4,4.6,111,106,99.3,62.2,40.2,95.6,100,90.2,76.2,70.7,97.3,100,100,94.6,79.5,97.9,100,94.5,95.1,73.3,98.6,90.3,89.1,88,76.8,> 10000,787,,,> 10000
COc1ccc(C(=O)N2CCCc3cc(C4=NNC(=O)SC4C)ccc32)cc1OC (stereo unspecified),0,3.5,0,2.9,3.2,83.4,80.2,95.9,90.1,81.2,95.4,94.2,89.8,83.7,71.5,103,100,102,83.7,67.7,96.2,104,103,96.8,90.2,97.5,93.4,101,87.7,70.1,,> 10000,,> 10000,
S=C(NCc1ccc2c(c1)OCO2)N1CCN(c2ncnc3c2oc2ccccc23)CC1 [amuvatinib],7.1,2.8,2.5,1.4,2.8,100,101,96.2,84,19,95.2,90.6,97.1,84.5,68.3,102,104,97.9,90.4,67.6,104,96.6,100,95,65.1,98.4,92.7,101,94.1,78.7,,1750,,,> 10000
CC(C)(O)c1ccccc1CC[C@@H](SCC1(CC(=O)O)CC1)c1cccc(/C=C/c2ccc3ccc(Cl)cc3n2)c1 [montelukast],0,0,0,0,,,,,,,,,,,,,,,,,,,,,,,,,,,,,,,
CCCCN(CCCC)CCCOC(=O)c1ccc(N)cc1 [butacaine],0,0,0,0,0.9,108,93,102,85.2,95.7,92.7,98.5,91.3,128,65.7,102,90.8,99.1,92.9,92.7,92.5,99.3,95.1,102,101,95.9,95.3,106,86.8,94.9,> 10000,> 10000,,> 10000,> 10000
COc1cc(/C=C2\CCCN([C@@H](C)c3ccc(F)cc3)C2=O)ccc1-n1cnc(C)c1 [E-2012],2.1,0,0,0,1.3,109,97.5,100,99,60.1,106,101,94.9,98.8,72.6,93.1,104,98.7,98.8,106,103,97.7,101,104,97.4,102,99.2,106,104,114,> 10000,,,> 10000,> 10000
